This note sets out measurements from patent US8536187B2 (Gilead Sciences, Inc., priority 2008, dated 2013).

Data set [1] relates to HCV replicon in human hepatoma Huh-7 cell line. Briefly: Anti-HCV replicon assay, EC50 (luciferase luminescence). The data set is classed as cell-based. The following applies: Hepatitis C virus, Huh-7, 72 h. The method in brief:
(§1)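 Huh-7 cells carrying HCV replicon (6000/well) incubated with serially diluted compound, 0.5% DMSO final, 3 days at 37° C, 5% CO2. EC50 from luciferase luminescence after 30 min lysis/substrate at room temperature; CC50 from CellTiter-Glo luminescence after 10 min at room temperature.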

A short description of data set [2]: CC50 assay (CellTiter-Glo) in Huh-7 HCV replicon cells. The following applies: human. The data set is classed as cell-based. The method, boiled down:
as §1
For orientation: ATP-based viability assays read luminescence as a measure of living cells.

In the case of `C[C@@H](Nc1nc(OC2CCC2)c2nc(-c3ccc(OC4CC4)nc3)ccc2n1)c1ccc(S(N)(=O)=O)cc1` [Example 252, 4-((R)-1-(4-cyclobutoxy-6-(6-cyclopropoxypyridin-3-yl)pyrido[3,2-d]pyrimidin-2-ylamino)ethyl)benzene-sulfonamide], the EC50 (commonly the concentration at which the effect is half-maximal) in data set [1] was less than 100 nM. The half-maximal cytotoxic concentration (CC50) (usually the concentration at which the toxic effect on the cells reaches its halfway point) at 3 days in data set [2] (Table 2, 3 days incubation) lay within 1000 to 10000 nM.

Turning to `CCOc1ccc(-c2ccc3nc(N[C@H](C)Cn4cncn4)nc(NCC(F)(F)F)c3n2)cn1` [Example 232, N^2-((R)-1-(1H-1,2,4-triazol-1-yl)propan-2-yl)-6-(6-ethoxypyridin-3-yl)-N^4-(2,2,2-trifluoroethyl)pyrido[3,2-d] pyrimidine-2,4-diamine], the concentration for a half-maximal effect (EC50) in data set [1] was less than 100 nM. In addition, in data set [2] (Table 2, 3 days incubation), the CC50 at 3 days lay within 1000 to 10000 nM.

For `Cc1cc(S(N)(=O)=O)ccc1C(C)Nc1nc(NCC(F)(F)F)c2nc(-c3ccc(F)cc3)ccc2n1` (stereo not drawn) [Example 10, 4-{1-[6-(4-Fluoro-phenyl)-4-(2,2,2-trifluoro-ethylamino)-pyrido[3,2-d]pyrimidin-2-ylamino]-ethyl}-3-methyl-benzenesulfonamide], in data set [1], the EC50 fell in the range of 100 to 250 nM. Besides, the CC50 at 3 days in data set [2] (Table 1, 3 days incubation) was less than 10000 nM.

`COc1ccc(-c2ccc3nc(NCCS(N)(=O)=O)nc(NC4(C(F)(F)F)CC4)c3n2)cc1S(C)(=O)=O` [Example 93, 2-(6-(4-methoxy-3-(methylsulfonyl)phenyl)-4-(1-(trifluoromethyl)cyclopropyl-amino)pyrido[3,2-d]pyrimidin-2-ylamino)ethanesulfonamide] showed a concentration for a half-maximal effect (EC50) in data set [1] of less than 100 nM. For the same compound, the CC50 at 3 days in data set [2] (Table 2, 3 days incubation) fell in the range of 1000 to 10000 nM.

Consider `CS(=O)(=O)c1cccc(-c2ccc3nc(NCc4ccc(-n5cncn5)cc4)nc(O[C@@H]4C[C@@H]5C[C@@H]5C4)c3n2)c1` [Example 194, N-(4-(1H-1,2,4-triazol-1-yl)benzyl)-4-((1S,3r,5R)-bicyclo[3.1.0]hexan-3-yloxy)-6-(3-(methylsulfonyl)phenyl) pyrido[3,2-d]pyrimidin-2-amine], for which the EC50 in data set [1] is less than 100 nM. This compound returned a half-maximal cytotoxic concentration (CC50) at 3 days in data set [2] (Table 2, 3 days incubation) of 1000 to 10000 nM.

The compound `c1ncn(-c2ccc(CNc3nc(OC4CC4)c4nc(-c5ccc(OC6CC6)nc5)ccc4n3)cc2)n1` [Example 248, N-(4-(1H-1,2,4-triazol-1-yl)benzyl)-4-cyclopropoxy-6-(6-cyclopropoxypyridin-3-yl)pyrido[3,2-d]pyrimidin-2-amine] displayed an EC50 in data set [1] of less than 100 nM. In addition, the CC50 at 3 days in data set [2] (Table 2, 3 days incubation) was 1000 to 10000 nM.

Regarding `C[C@@H](Nc1nc(NCC(F)(F)F)c2nc(C#CC(C)(C)C)ccc2n1)c1ccc(S(N)(=O)=O)cc1` [Example 285, (R)-4-(1-(6-(3,3-dimethylbut-1-ynyl)-4-(2,2,2-trifluoroethyl-amino)pyrido[3,2-d]pyrimidin-2-ylamino)ethyl)benzene-sulfonamide], in data set [1], the EC50 was in the range of 250 to 2000 nM. The compound also registered a CC50 at 3 days in data set [2] (Table 2, 3 days incubation) of more than 10000 nM.

In turn, `NS(=O)(=O)c1ccc(CNc2nc(NCC(F)(F)F)c3nc(-c4ccc(F)cc4)ccc3n2)cc1F` [Example 3, 2-Fluoro-4-{[6-(4-fluoro-phenyl)-4-(2,2,2-trifluoro-ethylamino)-pyrido[3,2-d]pyrimidin-2-ylamino]-methyl}-benzenesulfonamide] came in with an EC50 in data set [1] of 250 to 2000 nM. Further, in data set [2] (Table 1, 3 days incubation), the CC50 at 3 days was more than 25000 nM.

Take `COCC#Cc1ccc2nc(NCc3ccc(S(N)(=O)=O)cc3)nc(NCC(F)(F)F)c2n1` [Example 283, 4-((6-(3-methoxyprop-1-ynyl)-4-(2,2,2-trifluoroethylamino)pyrido[3,2-d]pyrimidin-2-ylamino)methyl)benzene-sulfonamide]: in data set [1], the EC50 is 100 to 250 nM. Also, the CC50 at 3 days in data set [2] (Table 2, 3 days incubation) is more than 10000 nM.

`NS(=O)(=O)c1cccc(CNc2nc(NC3(C(F)(F)F)CCCCC3)c3nc(-c4ccc(F)cc4)ccc3n2)c1` [Example 66, 3-((6-(4-fluorophenyl)-4-(1-(trifluoromethyl)cyclohexylamino)pyrido[3,2-d]pyrimidin-2-ylamino)methyl)benzene-sulfonamide] showed an EC50 in data set [1] of 100 to 250 nM. In addition, the CC50 at 3 days in data set [2] (Table 2, 3 days incubation) is more than 10000 nM.

Compound `COc1ccc(-c2ccc3nc(NCc4cccc(-n5cncn5)c4)nc(NC4(C(F)(F)F)CC4)c3n2)cc1S(C)(=O)=O` [Example 39, N^2-(3-(1H-1,2,4-triazol-1-yl)benzyl)-6-(4-methoxy-3-(methylsulfonyl)phenyl)-N^4-(1-(trifluoromethyl)cyclopropyl) pyrido[3,2-d]pyrimidine-2,4-diamine] returned an EC50 in data set [1] of less than 100 nM. The CC50 at 3 days in data set [2] (Table 2, 3 days incubation) was more than 10000 nM.

Turning to `CS(=O)(=O)c1cccc(CNc2nc(NC3(C(F)(F)F)CC3)c3nc(-c4ccc(F)cc4C#N)ccc3n2)c1` [Example 104, 2-(2-(3-(methylsulfonyl)benzylamino)-4-(1-(trifluoromethyl)cyclopropyl-amino)pyrido[3,2-d]pyrimidin-6-yl)-5-fluorobenzonitrile], the EC50 in data set [1] was in the range of 100 to 250 nM. The same compound showed a CC50 at 3 days in data set [2] (Table 2, 3 days incubation) of more than 10000 nM.

The compound `CS(=O)(=O)Nc1cccc(CNc2nc(NC3(C(F)(F)F)CC3)c3nc(-c4ccc(F)cc4)ccc3n2)c1` [Example 87, N-(3-((6-(4-fluorophenyl)-4-(1-(trifluoromethyl)cyclopropyl-amino)pyrido[3,2-d]pyrimidin-2-ylamino)methyl)phenyl) methanesulfonamide] had an EC50 in data set [1] of 100 to 250 nM. For the same compound, the CC50 at 3 days in data set [2] (Table 2, 3 days incubation) is more than 10000 nM.

`CS(=O)(=O)c1cccc(-c2ccc3nc(NCc4cccc(-n5cncn5)c4)nc(NCC(F)(F)F)c3n2)c1` [Example 16, 6-(3-Methanesulfonyl-phenyl)-N2-(3-[1,2,4]-triazol-1-yl-benzyl)-N4-(2,2,2-trifluoro-ethyl)-pyrido[3,2-d]pyrimidine-2,4-diamine] returned an EC50 in data set [1] of less than 100 nM. Besides, the CC50 at 3 days in data set [2] (Table 1, 3 days incubation) is more than 25000 nM.

With `COCCNc1nc(NCC(F)(F)F)c2nc(-c3cccc(S(C)(=O)=O)c3)ccc2n1` [Example 139, N^2-(2-methoxyethyl)-6-(3-(methylsulfonyl)phenyl)-N^4-(2,2,2-trifluoroethyl)pyrido [3,2-d]pyrimidine-2,4-diamine], in data set [1], the EC50 is less than 100 nM. The CC50 at 3 days in data set [2] (Table 2, 3 days incubation) was more than 10000 nM.

As for `Cc1nc(C)n(-c2ccc(CNc3nc(OC4(C)CC4)c4nc(-c5ccc(OC(F)F)c(S(C)(=O)=O)c5)ccc4n3)cc2)n1` [Example 205, N-(4-(3,5-dimethyl-1H-1,2,4-triazol-1-yl)benzyl)-6-(4-(difluoromethoxy)-3-(methylsulfonyl)phenyl)-4-(1-methylcyclopropoxy)pyrido [3,2-d]pyrimidin-2-amine], the EC50 in data set [1] is less than 100 nM. Also, the CC50 at 3 days in data set [2] (Table 2, 3 days incubation) was more than 10000 nM.

With `CS(=O)(=O)c1cc(-c2ccc3nc(NCc4cc(F)cc(S(N)(=O)=O)c4)nc(NC4(C(F)(F)F)CC4)c3n2)ccc1Cl` [Example 36, 3-((6-(4-chloro-3-(methylsulfonyl)phenyl)-4-(1-(trifluoromethyl)cyclopropyl-amino)pyrido[3,2-d]pyrimidin-2-ylamino)methyl)-5-fluorobenzenesulfonamide], the EC50 in data set [1] was less than 100 nM. In data set [2] (Table 2, 3 days incubation), this compound had a CC50 at 3 days of 1000 to 10000 nM.

For the compound `Cc1cc(CNc2nc(NC3(C(F)(F)F)CC3)c3nc(-c4ccc(F)cc4)ccc3n2)cc(S(N)(=O)=O)c1` [Example 82, 3-((6-(4-fluorophenyl)-4-(1-(trifluoromethyl)cyclopropyl-amino)pyrido[3,2-d]pyrimidin-2-ylamino)methyl)-5-methylbenzenesulfonamide], the EC50 in data set [1] is less than 100 nM. In data set [2] (Table 2, 3 days incubation), this compound registered a 50% cytotoxic concentration (CC50) at 3 days of more than 10000 nM.
